From article PMC4704022, “Insights on FXR selective modulation. Speculation on bile acid chemical space in the discovery of potent and selective agonists” (Scientific Reports, 2016)
“Also recorded” adds a separate entry of the source.

Columns and labels:
GPBAR1 = target: T1, GPBAR1 (Homo sapiens, UniProt Q8TDU6); assay: GPBAR1 antagonism, transactivation assay in HEK-293T cells stimulated with TLCA; assay type: cell-based
T1 construct: expressed in transfected cells; host or cells: HEK-293T
T1 sequence (Q8TDU6 1-330): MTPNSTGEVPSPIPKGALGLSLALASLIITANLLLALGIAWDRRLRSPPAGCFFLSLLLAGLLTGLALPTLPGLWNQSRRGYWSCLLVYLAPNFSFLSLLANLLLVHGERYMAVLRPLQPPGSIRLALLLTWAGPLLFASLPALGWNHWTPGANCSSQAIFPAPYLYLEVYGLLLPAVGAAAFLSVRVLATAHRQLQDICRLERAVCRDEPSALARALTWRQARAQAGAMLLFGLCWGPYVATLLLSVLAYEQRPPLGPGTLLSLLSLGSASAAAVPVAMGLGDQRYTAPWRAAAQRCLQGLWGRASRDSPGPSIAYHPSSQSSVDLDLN
Excerpt: Figure 9 Antagonism on GPBAR1 by transactivation assay. (A) HEK-293T cells were transfected as described in Fig. 8. […] Results are expressed as mean ± standard error.
To investigate GPBAR1 activation, HEK-293T cells were transiently transfected with Fugene HD reagent (Promega) using the following vectors: pCMVSPORT6-human GPBAR1, pGL4.29 (Promega), a reporter vector containing a cAMP response element (CRE) cloned upstream to the luciferase reporter gene luc2P and pGL4.70. […] Dose-response curves were performed in HEK-293T cells transfected as described above and treated with increasing concentrations of 9 and 21 (from 100 nM to 50 μM). […] At 18 h post stimulations, cellular lysate was assayed for luciferase and renilla activities using the Dual-Luciferase Reporter assay system (E1980, Promega). Luminescence was measured using Glomax 20/20 luminometer (Promega). Luciferase activities were normalized with Renilla activities.

FXR = target: T2, FXR (Homo sapiens, UniProt Q96RI1); assay: FXR transactivation luciferase reporter assay in transfected HepG2 cells; assay type: cell-based
T2 construct: expressed in transfected cells; host or cells: HepG2
T2 sequence (Q96RI1 1-486): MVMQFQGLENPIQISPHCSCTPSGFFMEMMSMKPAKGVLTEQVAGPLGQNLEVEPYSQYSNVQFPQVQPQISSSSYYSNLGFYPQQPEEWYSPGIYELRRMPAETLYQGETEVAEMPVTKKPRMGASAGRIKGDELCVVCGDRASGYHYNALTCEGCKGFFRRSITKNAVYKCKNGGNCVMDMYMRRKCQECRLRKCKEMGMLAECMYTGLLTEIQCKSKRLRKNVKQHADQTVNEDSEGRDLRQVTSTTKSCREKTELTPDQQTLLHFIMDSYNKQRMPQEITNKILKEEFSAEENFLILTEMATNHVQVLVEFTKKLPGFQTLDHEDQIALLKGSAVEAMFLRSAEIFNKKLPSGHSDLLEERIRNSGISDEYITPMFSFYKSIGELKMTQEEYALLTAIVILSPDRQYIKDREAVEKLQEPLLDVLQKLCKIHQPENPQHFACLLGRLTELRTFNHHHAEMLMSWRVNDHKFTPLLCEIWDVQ
T2 sequence (P19793 1-462 partner): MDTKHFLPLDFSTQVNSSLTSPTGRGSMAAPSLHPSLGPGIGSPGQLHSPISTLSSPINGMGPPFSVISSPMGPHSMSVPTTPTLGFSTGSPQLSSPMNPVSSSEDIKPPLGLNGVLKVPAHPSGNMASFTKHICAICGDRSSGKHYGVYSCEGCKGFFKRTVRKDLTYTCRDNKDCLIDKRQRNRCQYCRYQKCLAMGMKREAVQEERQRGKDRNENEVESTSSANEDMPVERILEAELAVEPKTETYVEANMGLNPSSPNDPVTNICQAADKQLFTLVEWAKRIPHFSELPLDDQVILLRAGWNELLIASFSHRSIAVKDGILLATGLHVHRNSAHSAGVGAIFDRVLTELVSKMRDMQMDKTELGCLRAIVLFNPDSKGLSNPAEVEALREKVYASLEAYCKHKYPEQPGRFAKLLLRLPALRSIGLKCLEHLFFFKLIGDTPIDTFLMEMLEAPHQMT
Description: Figure 6 Transactivation assays on FXR. (A) HepG2 cells were transfected with pSG5-FXR, pSG5-RXR, pCMV-βgal, and p(hsp27)TKLUC vectors. […] Twenty-four hour post transfection cells were stimulated with increasing concentrations of each agent: range from 100 nM to 10 μM.
To evaluate the transcriptional activity of FXR, HepG2 cells were transiently transfected with Fugene HD reagent (Promega) using the followings plasmids: pCMVSPORT-humanFXR, pSG5RXR, p(hsp27)TKLUC and pGL4.70, a plasmid containing the Renilla gene used for luciferase normalization.

[1] = tested on: FXR target genes (OSTα, SHP, BSEP); assay: In vivo effect on FXR target genes in mouse liver (Real-Time PCR); design: species or system C57BL6 mice; conditions: mice, 15 mg/kg ip, 6 h, versus control mice
Description: Figure 10 In vivo effect of 10 on FXR target genes. C57BL6 mice were administered with 10 (15 mg/Kg) for 6 h. After treatment liver were removed and the relative mRNA expression of OSTα, SHP and BSEP was assayed by quantitative Real-Time PCR. *p < 0.05 versus control mice.
C57BL6 mice were administered with compound 10 (15 mg/kg, ip). At 6 h post-treatment, livers and blood were collected.
Total RNA was extracted using the TRIzol reagent (Life Technologies). First, 1 μg of RNA was purified of the genomic DNA by DNase I treatment (Life Technologies) and random reverse-transcribed with Superscript II (Life Technologies) in a 20 μL reaction volume. Then 10 ng of cDNA was amplified in a final volume of 20 μL in a mix containing 200 nM of each sense/antisense primers and 10 μL of 2× SYBR Select Master mix (Life Technologies). RT-PCR reactions were performed in duplicate and the thermal cycling conditions were: 2 min at 95 °C, followed by 40 cycles of 95 °C for 20 s, 60 °C for 30 s on Step One Plus Instrument (ABI). The relative mRNA expression was calculated and expressed as 2^−(ΔΔCt). Sense and antisense primer sequences were the following: mouse GAPDH, […] and […]; mOSTα, […] and […]; mBSEP, […] and […]; mSHP, […] and […].

CC[C@H]1[C@@H](O)[C@@H]2[C@H](CC[C@]3(C)[C@@H]([C@H](C)CCC(=O)O)CC[C@@H]23)[C@@]2(C)CCCC[C@@H]12 [compound 10, 6α-ethyl-7α-hydroxy-5β-cholan-24-oic acid]
GPBAR1 antagonism (in words) (GPBAR1; HEK-293T, 10 μM TLCA in combination with 25 μM compound): showed inhibitory activity against GPBAR1 transactivation induced by TLCA | IC50 (GPBAR1; read-out: IC50, antagonism of TLCA-induced GPBAR1 transactivation): 11 µM | EC50 (FXR; HepG2 cells transfected with FXR, luciferase reporter, 100 nM to 10 μM): 0.95 µM | FXR transactivation activity (in words) (FXR; HepG2 cells, compounds at 10 μM, CDCA 10 μM and 6-ECDCA 1 μM as positive controls): potent agonists of FXR | Tauro-conjugated bile acids (tMu, tCA, tHCA, tCDCA, tDCA, tLCA), plasmatic concentration (mice, 15 mg/kg ip, 6 h): unaffected | Blood concentration of 7α-hydroxy-4-cholesten-3-one (mice, 15 mg/kg, indirect measure of CYP7A1 activity): reduced | Form of the compound found in blood (mouse, in vivo, ip, 15 mg/kg): only found in the conjugated form with taurine | Relative mRNA expression of BSEP in liver [1]: significantly up-regulated; also recorded: increased the expression | Relative mRNA expression of OSTα in liver [1]: significantly up-regulated; also recorded: increased the expression | Relative mRNA expression of SHP in liver [1]: significantly up-regulated; also recorded: increased the expression
